In patent publication US11981686B2, “Urea compound having substituent” (DAIICHI SANKYO COMPANY, LIMITED, priority 2019, dated 2024):

Biological target: SIRT6 enzyme (Homo sapiens, UniProt Q8N6T7)
Experiment: Measurement of deacetylation activity (SIRT6, AlphaLISA, H3K9(Ac) peptide)
Format: biochemical
Conditions: SIRT6 25 ng/mL, H3K9(Ac) biotin peptide 2 nM, NAD 10 μM, room temperature 30 minutes, duplicate
In short: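 SIRT6 (25 ng/mL final) in Tris-HCl pH 8.0 buffer with compound (e.g. 0.046–100 μM final) reacted with biotin-H3K9(Ac) peptide (2 nM) and NAD+ (10 μM), 30 min, room temperature. Stopped with nicotinamide plus AlphaLISA anti-unmodified H3K9/K27 beads, 60 min; EC150 (150% relative activity) from sigmoidal fit.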

Sequence of SIRT6 enzyme (Q8N6T7 whole entry, species assumed): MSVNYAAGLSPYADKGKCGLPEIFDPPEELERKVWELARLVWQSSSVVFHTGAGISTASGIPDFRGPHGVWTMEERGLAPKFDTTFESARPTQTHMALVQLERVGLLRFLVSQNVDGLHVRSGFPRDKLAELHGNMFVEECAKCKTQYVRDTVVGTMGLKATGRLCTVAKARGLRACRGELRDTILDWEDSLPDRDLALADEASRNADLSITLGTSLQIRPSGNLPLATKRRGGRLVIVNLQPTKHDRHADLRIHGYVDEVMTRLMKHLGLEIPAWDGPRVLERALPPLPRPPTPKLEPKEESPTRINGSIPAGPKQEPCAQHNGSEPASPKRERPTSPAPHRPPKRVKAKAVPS

| SMILES | EC150 (the concentration of the compound showing a relative enzyme activity of 150%) [μm] |
| --- | --- |
| CNC(=O)Nc1nc2c(s1)C1COCC(C2)N1c1nnc(-c2cccc(C(=O)C3CCC3)c2)o1 (stereo not drawn) [Example 113, N-(10-{5-[3-(cyclobutanecarbonyl)phenyl]-1,3,4-oxadiazol-2-yl}-4,7,8,9-tetrahydro-5H-4,8-epiminooxocino[5,4-d][1,3]thiazol-2-yl)-N′-methylurea] | 2.6 |
| C[C@H](CO)NC(=O)Nc1nc2c(s1)[C@@H]1COC[C@H](C2)N1c1ncc(-c2cccc(C(F)F)c2)o1 [Example 71, N-[(4S,8S)-10-{5-[3-(difluoromethyl)phenyl]-1,3-oxazol-2-yl}-4,7,8,9-tetrahydro-5H-4,8-epiminooxocino[5,4-d][1,3]thiazol-2-yl]-N′-[(2R)-1-hydroxypropan-2-yl]urea] | 0.34 |
| CC(C)NC(=O)Nc1nc2c(s1)[C@@H]1COC[C@H](C2)N1c1nnc(-c2cccc(C(=O)C3CC3)c2)o1 [Example 117, N-[(4S,8S)-10-{5-[3-(cyclopropanecarbonyl)phenyl]-1,3,4-oxadiazol-2-yl}-4,7,8,9-tetrahydro-5H-4,8-epiminooxocino[5,4-d][1,3]thiazol-2-yl]-N′-propan-2-ylurea] | 1 |
| CCOc1cccc(-c2cnc(N3[C@@H]4COC[C@H]3c3sc(NC(=O)N[C@H]5C[C@H](O)C5)nc3C4)o2)n1 [Example 80, N-{(4S,8S)-10-[5-(6-ethoxypyridin-2-yl)-1,3-oxazol-2-yl]-4,7,8,9-tetrahydro-5H-4,8-epiminooxocino[5,4-d][1,3]thiazol-2-yl}-N′-[(1r,3S)-3-hydroxycyclobutyl]urea] | 0.48 |
| COC(=O)N1C[C@H]2Cc3nc(NC(=O)NCC(C)(C)O)sc3[C@@H](C1)N2c1nc(C2(C(F)(F)F)CC2)no1 (relative stereo) [Example 33, Methyl (4R*,8R*)-2-{[(2-hydroxy-2-methylpropyl)carbamoyl]amino}-10-{3-[1-(trifluoromethyl)cyclopropyl]-1,2,4-oxadiazol-5-yl}-4,7,8,9-tetrahydro-4,8-epimino[1,3]thiazolo[5,4-d]azocine-6(5H)-carboxylate] | 1.6 |
| O=C(Nc1nc2c(s1)[C@@H]1COC[C@H](C2)N1c1cc(-c2ccc(F)cc2)on1)N[C@@H]1CCOC1 [Example 155] | 0.51 |
| C[C@H](CO)NC(=O)Nc1nc2c(s1)C1COCC(C2)N1c1nc(-c2cccc(C(F)F)c2)no1 (stereo partly drawn) [Example 124, N-(10-{3-[3-(difluoromethyl)phenyl]-1,2,4-oxadiazol-5-yl}-4,7,8,9-tetrahydro-5H-4,8-epiminooxocino[5,4-d][1,3]thiazol-2-yl)-N′-[(2R)-1-hydroxypropan-2-yl]urea] | 0.39 |
| CC(C)(O)CNC(=O)Nc1nc2c(s1)CN(c1nc(C3CCC(F)(F)C3)no1)CC2 (stereo not drawn) [Example 94, N-{5-[3-(3,3-difluorocyclopentyl)-1,2,4-oxadiazol-5-yl]-4,5,6,7-tetrahydro[1,3]thiazolo[5,4-c]pyridin-2-yl}-N′-(2-hydroxy-2-methylpropyl)urea] | 1.6 |
| COc1ccc2oc(N3Cc4sc(NC(=O)NCC(C)(C)O)nc4CC3(C)C)nc2c1 [Example 190, N-(2-hydroxy-2-methylpropyl)-N′-[5-(5-methoxy-1,3-benzoxazol-2-yl)-6,6-dimethyl-4,5,6,7-tetrahydro[1,3]thiazolo[5,4-c]pyridin-2-yl]urea] | 1.7 |
| COc1ccc2oc(N3[C@@H]4COC[C@H]3c3sc(NC(=O)NCC(C)(C)O)nc3C4)nc2c1 [Example 46, N-(2-hydroxy-2-methylpropyl)-N′-[(4S,8S)-10-(5-methoxy-1,3-benzoxazol-2-yl)-4,7,8,9-tetrahydro-5H-4,8-epiminooxocino[5,4-d][1,3]thiazol-2-yl]urea] | 2.1 |
| CC(=O)N1CC[C@@H](NC(=O)Nc2nc3c(s2)[C@@H]2COC[C@H](C3)N2c2ncc(-c3cccc(OC(F)F)n3)o2)C1 [Example 182, N-[(3R)-1-acetylpyrrolidin-3-yl]-N′-[(4S,8S)-10-{5-[6-(difluoromethoxy)pyridin-2-yl]-1,3-oxazol-2-yl}-4,7,8,9-tetrahydro-5H-4,8-epiminooxocino[5,4-d][1,3]thiazol-2-yl]urea] | 0.16 |
| COc1cccc(-c2cnc(N3[C@@H]4COC[C@H]3c3sc(NC(=O)NCC(C)(C)O)nc3C4)o2)n1 [Example 184, N-(2-hydroxy-2-methylpropyl)-N′-{(4S,8S)-10-[5-(6-methoxypyridin-2-yl)-1,3-oxazol-2-yl]-4,7,8,9-tetrahydro-5H-4,8-epiminooxocino[5,4-d][1,3]thiazol-2-yl}urea] | 0.91 |
| CC(C)(O)CNC(=O)Nc1nc2c(s1)[C@@H]1COC[C@H](C2)N1c1nc2cc(OCF)ccc2o1 [Example 57, N-{(4S,8S)-10-[5-(fluoromethoxy)-1,3-benzoxazol-2-yl]-4,7,8,9-tetrahydro-5H-4,8-epiminooxocino[5,4-d][1,3]thiazol-2-yl}-N′-(2-hydroxy-2-methylpropyl)urea] | 0.93 |
| O=C(NCc1cncnc1)Nc1nc2c(s1)CN(c1nc(C3CCC(F)(F)CC3)no1)CC2 [Example 99, N-{5-[3-(4,4-difluorocyclohexyl)-1,2,4-oxadiazol-5-yl]-4,5,6,7-tetrahydro[1,3]thiazolo[5,4-c]pyridin-2-yl}-N′-[(pyrimidin-5-yl)methyl]urea] | 1.1 |
| CC(C)(O)CNC(=O)Nc1nc2c(s1)[C@@H]1COC[C@H](C2)N1c1ncc(-c2cccc(OC(F)F)c2)o1 [Example 172, N-[(4S,8S)-10-{5-[3-(difluoromethoxy)phenyl]-1,3-oxazol-2-yl}-4,7,8,9-tetrahydro-5H-4,8-epiminooxocino[5,4-d][1,3]thiazol-2-yl]-N′-(2-hydroxy-2-methylpropyl)urea] | 0.83 |
| CNC(=O)Nc1nc2c(s1)C1CN(C(=O)OC)CC(C2)N1c1nc(C23CC(C(F)F)(C2)C3)no1 (stereo not drawn) [Example 135, Methyl 10-{3-[3-(difluoromethyl)bicyclo[1.1.1]pentan-1-yl]-1,2,4-oxadiazol-5-yl}-2-[(methylcarbamoyl)amino]-4,7,8,9-tetrahydro-4,8-epimino[1,3]thiazolo[5,4-d]azocine-6(5H)-carboxylate] | 2.1 |
| COCCCNC(=O)Nc1nc2c(s1)CN(c1nc(C3CCC(F)(F)CC3)no1)CC2 [Example 27, N-{5-[3-(4,4-difluorocyclohexyl)-1,2,4-oxadiazol-5-yl]-4,5,6,7-tetrahydro[1,3]thiazolo[5,4-c]pyridin-2-yl}-N′-(3-methoxypropyl)urea] | 2.1 |
| CNC(=O)Nc1nc2c(s1)[C@@H]1COC[C@H](C2)N1c1nc(-c2ccc(F)cc2)co1 [Example 17, N-{(4S,8S)-10-[4-(4-fluorophenyl)-1,3-oxazol-2-yl]-4,7,8,9-tetrahydro-5H-4,8-epiminooxocino[5,4-d][1,3]thiazol-2-yl}-N′-methylurea] | 1.8 |
| C[C@H](CO)NC(=O)Nc1nc2c(s1)CN(c1nccc(C3CCCOC3)n1)CC2 (stereo partly drawn) [Example 191, N-[(2R)-1-hydroxypropan-2-yl]-N′-{5-[4-(oxan-3-yl)pyrimidin-2-yl]-4,5,6,7-tetrahydro[1,3]thiazolo[5,4-c]pyridin-2-yl}urea] | 1.2 |
| CNC(=O)Nc1nc2c(s1)C1CN(C(=O)OC)CC(C2)N1c1nc2cc(OC)ccc2o1 (stereo not drawn) [Example 141, Methyl 10-(5-methoxy-1,3-benzoxazol-2-yl)-2-[(methylcarbamoyl)amino]-4,7,8,9-tetrahydro-4,8-epimino[1,3]thiazolo[5,4-d]azocine-6(5H)-carboxylate] | 0.58 |
| CNC(=O)Nc1nc2c(s1)C1CN(C(C)=O)CC(C2)N1c1ncc(-c2cccc(Cl)c2)o1 (stereo not drawn) [Example 139, N-{6-acetyl-10-[5-(3-chlorophenyl)-1,3-oxazol-2-yl]-4,5,6,7,8,9-hexahydro-4,8-epimino[1,3]thiazolo[5,4-d]azocin-2-yl}-N′-methylurea] | 0.36 |
| Cc1cc2nc(N3[C@@H]4COC[C@H]3c3sc(NC(=O)NCC(C)(C)O)nc3C4)oc2cc1C#N [Example 51, N-[(4S,8S)-10-(6-cyano-5-methyl-1,3-benzoxazol-2-yl)-4,7,8,9-tetrahydro-5H-4,8-epiminooxocino[5,4-d][1,3]thiazol-2-yl]-N′-(2-hydroxy-2-methylpropyl)urea] | 0.47 |
| CNC(=O)Nc1nc2c(s1)C1COCC(C2)N1c1ncc(-c2cccc(C(F)F)c2)o1 (stereo not drawn) [Example 14, N-(10-{5-[3-(difluoromethyl)phenyl]-1,3-oxazol-2-yl}-4,7,8,9-tetrahydro-5H-4,8-epiminooxocino[5,4-d][1,3]thiazol-2-yl)-N′-methylurea] | 0.94 |
| CNC(=O)Nc1nc2c(s1)C1CN(C(=O)OC(C)C)CC(C2)N1c1nc(-c2ccc(F)cc2)no1 (stereo not drawn) [Example 32, Propan-2-yl 10-[3-(4-fluorophenyl)-1,2,4-oxadiazol-5-yl]-2-[(methylcarbamoyl)amino]-4,7,8,9-tetrahydro-4,8-epimino[1,3]thiazolo[5,4-d]azocine-6(5H)-carboxylate] | 0.27 |
